Experimental data from ChEMBL document CHEMBL1201862, “PubChem BioAssay data set” (2004).
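Briefly, cells in 96-well plates were exposed to five compound concentrations for 48 h, and endpoints were estimated by linear interpolation. Abbreviation: GI50, concentration required for 50% inhibition of growth.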 The source made the active and inactive calls. Cut-off read from the data, not from the text of the source: active = GI50 up to about 1.1 µM and inactive = higher.

Experiments:
Experiment in all cases: DTP human tumour cell line panel, 48 h
A549 = test system: A549
CAKI-1 = test system: CAKI-1
HCT-116 = test system: HCT-116
HOP-92 = test system: HOP-92
HT-29 = test system: HT-29
NCI-H23 = test system: NCI-H23
NCI/ADR-RES = test system: NCI/ADR-RES
OVCAR-3 = test system: OVCAR-3
OVCAR-4 = test system: OVCAR-4
RPMI-8226 = test system: RPMI-8226
SF-268 = test system: SF-268
SF-295 = test system: SF-295
SF-539 = test system: SF-539
SK-MEL-5 = test system: SK-MEL-5
SN12C = test system: SN12C
SNB-19 = test system: SNB-19
SW-620 = test system: SW-620
TK-10 = test system: TK-10
HOP-62 = test system: HOP-62
Malme-3M = test system: Malme-3M

Measured: GI50

CCOC(=O)C(NC(C)=O)(Nc1ccc(F)cc1)C(F)(F)F (stereo not drawn)
inactive: A549 39.3 µM | CAKI-1 > 100 µM | HCT-116 13.4 µM | HOP-92 > 100 µM | HT-29 > 100 µM | NCI-H23 > 100 µM | NCI/ADR-RES 8.13 µM | OVCAR-3 > 100 µM | OVCAR-4 88.1 µM | RPMI-8226 72.1 µM | SF-268 > 100 µM | SF-295 16.6 µM | SF-539 > 100 µM | SK-MEL-5 3.03 µM | SN12C > 100 µM | SNB-19 > 100 µM | SW-620 28.8 µM | TK-10 > 100 µM

COC(=O)C1=C(O)C(C(=O)OC)[C@@]2(O)[C@@H](C(=O)OC)CC[C@@H]1[C@@H]2C(=O)OC (stereo partly drawn)
inactive: HCT-116 30.4 µM | HOP-62 23.8 µM | HT-29 > 100 µM | Malme-3M 21.5 µM | NCI-H23 17.8 µM | OVCAR-3 21.3 µM | RPMI-8226 27.2 µM | SF-268 29.4 µM | SF-539 18.6 µM | SN12C 25.4 µM | SNB-19 43.4 µM | TK-10 23 µM

Cn1cnc(/C=C/C#N)c1
inactive: A549 > 100 µM | CAKI-1 > 100 µM | HOP-62 > 100 µM | HOP-92 > 100 µM | HT-29 > 100 µM | Malme-3M > 100 µM | NCI-H23 > 100 µM | NCI/ADR-RES > 100 µM | OVCAR-3 > 100 µM | OVCAR-4 > 100 µM | SF-268 > 100 µM | SF-295 > 100 µM | SF-539 > 100 µM | SK-MEL-5 > 100 µM | SN12C > 100 µM | SNB-19 > 100 µM | SW-620 > 100 µM | TK-10 > 100 µM

COc1nc(N)c(C(=O)CCl)c(=O)n1C
inactive: A549 18 µM | CAKI-1 7.41 µM | HCT-116 10.9 µM | HOP-92 4.66 µM | HT-29 16 µM | Malme-3M 10.5 µM | NCI-H23 > 10 µM | OVCAR-4 15.4 µM | RPMI-8226 2.71 µM | SF-268 19.1 µM | SF-295 15.2 µM | SF-539 18 µM | SK-MEL-5 15.1 µM | SN12C 17.5 µM | SNB-19 17.7 µM | SW-620 12.4 µM | TK-10 14.7 µM

CC1(C23CC4CC(CC(C4)C2)C3)n2c(=O)n(-c3ccccc3)c(=O)n2C1(C)C12CC3CC(CC(C3)C1)C2 (stereo not drawn)
inactive: A549 > 100 µM | CAKI-1 > 100 µM | HOP-62 > 100 µM | HOP-92 > 100 µM | HT-29 > 100 µM | NCI-H23 > 100 µM | NCI/ADR-RES > 100 µM | OVCAR-3 > 100 µM | RPMI-8226 89.7 µM | SF-268 > 100 µM | SF-295 > 100 µM | SF-539 > 100 µM | SK-MEL-5 > 100 µM | SN12C > 100 µM | SNB-19 > 100 µM | SW-620 > 100 µM | TK-10 > 100 µM

CC(C)(C)C1(c2ccc(C3(c4ccccc4)Oc4ccccc4S3)[nH]2)Oc2ccccc2S1 (stereo not drawn)
inactive: A549 > 100 µM | CAKI-1 > 100 µM | HCT-116 > 100 µM | HOP-62 > 100 µM | HOP-92 26.8 µM | HT-29 > 100 µM | Malme-3M > 100 µM | NCI-H23 > 100 µM | OVCAR-3 > 100 µM | RPMI-8226 96.2 µM | SF-268 > 100 µM | SF-295 > 100 µM | SF-539 > 100 µM | SK-MEL-5 > 100 µM | SN12C > 100 µM | SNB-19 > 100 µM | SW-620 > 100 µM | TK-10 > 100 µM

COc1cccc(NC(=O)N/C(=C/c2ccc(N(CCC#N)CCC#N)cc2)NC(=O)c2cc([N+](=O)[O-])ccc2Cl)c1
inactive: A549 > 100 µM | CAKI-1 > 100 µM | HCT-116 > 100 µM | HOP-62 > 100 µM | HOP-92 > 100 µM | NCI-H23 > 100 µM | OVCAR-3 > 100 µM | OVCAR-4 > 100 µM | RPMI-8226 51.6 µM | SF-268 > 100 µM | SF-295 > 100 µM | SF-539 > 100 µM | SK-MEL-5 > 100 µM | SN12C > 100 µM | SNB-19 > 100 µM | TK-10 > 100 µM

CCOC(=O)/C(=N/Nc1ccc(C)cc1)N1C(=S)N(C)N=C(C)C=C1S
inactive: A549 > 100 µM | CAKI-1 77.1 µM | HCT-116 > 100 µM | HOP-92 49.5 µM | HT-29 > 100 µM | NCI-H23 94.4 µM | NCI/ADR-RES > 100 µM | OVCAR-3 > 100 µM | OVCAR-4 > 100 µM | RPMI-8226 > 100 µM | SF-268 33.8 µM | SF-295 19.1 µM | SF-539 > 100 µM | SK-MEL-5 > 100 µM | SN12C > 100 µM | SNB-19 69.8 µM | SW-620 > 100 µM | TK-10 45.7 µM

COc1cc2c(cc1OC)C1Cc3sccc3CN1CC2 (stereo not drawn)
inactive: A549 > 100 µM | CAKI-1 > 100 µM | HCT-116 > 100 µM | HOP-62 > 100 µM | HOP-92 76.2 µM | HT-29 > 100 µM | Malme-3M > 100 µM | NCI-H23 > 100 µM | OVCAR-3 > 100 µM | OVCAR-4 > 100 µM | RPMI-8226 > 100 µM | SF-268 > 100 µM | SF-295 > 100 µM | SF-539 > 100 µM | SK-MEL-5 > 100 µM | SN12C > 100 µM | SNB-19 > 100 µM | SW-620 > 100 µM | TK-10 > 100 µM

O=C1c2ccccc2OCC1/C=N/O (stereo not drawn)
inactive: A549 > 100 µM | HCT-116 > 100 µM | HOP-62 > 100 µM | HOP-92 > 55.1 µM | HT-29 62.7 µM | Malme-3M > 100 µM | NCI-H23 > 100 µM | NCI/ADR-RES > 100 µM | OVCAR-3 > 100 µM | OVCAR-4 > 62.5 µM | RPMI-8226 > 100 µM | SF-268 > 58.9 µM | SF-295 > 100 µM | SF-539 76 µM | SK-MEL-5 > 85.5 µM | SN12C > 80.5 µM | SW-620 > 100 µM

O=c1c(Cc2ccc(Cc3c(O)oc4ccccc4c3=O)cc2)c(O)oc2ccccc12
inactive: A549 > 100 µM | CAKI-1 > 100 µM | HCT-116 > 100 µM | HOP-62 > 100 µM | HOP-92 > 100 µM | HT-29 > 100 µM | Malme-3M > 100 µM | NCI-H23 > 100 µM | NCI/ADR-RES > 100 µM | OVCAR-3 > 100 µM | OVCAR-4 > 100 µM | SF-268 > 100 µM | SF-295 > 100 µM | SF-539 > 100 µM | SK-MEL-5 > 100 µM | SN12C > 100 µM | SW-620 > 100 µM | TK-10 > 100 µM
